The record followed here is patent US9006487B2, “Amine-containing lipids and uses thereof” (Massachusetts Institute of Technology, priority 2005, dated 2015).

The test system of this assay is cos-7 cells. As to the kind of experiment: DNA transfection: luciferase expression relative to Lipofectamine 2000. Format: cell-based. As to conditions: for Luciferase expression as a percentage of that achieved using Lipofectamine 2000: 300 ng Luciferase DNA per well; for % of the luciferase activity obtained from the use of Lipofectamine 2000: 300 ng DNA per well. Put shortly: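 Lipid/DNA complexes, 300 ng luciferase DNA per well at 2.5-25 w/w lipid:DNA, were formed in sodium acetate/Optimem and added to overnight-seeded cos-7 cells. Luciferase was measured by Bright-Glo luminescence after 48 hours and quantified against an enzyme standard curve. Values are expressed as % of Lipofectamine 2000 at 2.5 w/w.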

Where [1] appears, read: lipid/DNA 2.5 w/w, luciferase assay after 48 hours.
Where [2] appears, read: lipid/DNA 5 w/w, luciferase assay after 48 hours.
[3] abbreviates: lipid/DNA 10 w/w, luciferase assay after 48 hours.
Where [4] appears, read: lipid/DNA 15 w/w, luciferase assay after 48 hours.
The mark [5] stands for this setting: lipid/DNA 20 w/w, luciferase assay after 48 hours.
Setting [6] is: lipid/DNA 25 w/w, luciferase assay after 48 hours.
Where [7] appears, read: lipid/DNA 2.5 w/w, 72 hours incubation before bright-glo.
Where [8] appears, read: lipid/DNA 5 w/w, 72 hours incubation before bright-glo.
Where [9] appears, read: lipid/DNA 10 w/w, 72 hours incubation before bright-glo.
The mark [10] stands for this setting: lipid/DNA 15 w/w, 72 hours incubation before bright-glo.
The mark [11] stands for this setting: lipid/DNA 20 w/w, 72 hours incubation before bright-glo.
Where [12] appears, read: lipid/DNA 25 w/w, 72 hours incubation before bright-glo.

“And” between values parts separate entries of the source, which are not always exact repeats. Identical values can stand only once.

Regarding `CCCCCCCCCCCCOC(=O)CCN(CCC(=O)OCCCCCCCCCCCC)CCN1CCOCC1` [LD90], the “Luciferase expression as a percentage of that achieved using Lipofectamine 2000” value (from here on “Luciferase expression as a percentage”) is, setting by setting: under setting [1], 0.5% and 0.4%; under setting [2], 0.4%; under setting [3], 0.4%; under setting [4], 0.6% and 0.4%; under setting [5], 0.4% and 0.5%; under setting [6], 0.4% and 0.5%.
For the compound `CCCCCCCCCCCCCCOC(=O)CCN(CCCN1CCOCC1)CCC(=O)OCCCCCCCCCCCCCC` [LF91], the “Luciferase expression as a percentage” value under setting [1] was 0.5%; the “Luciferase expression as a percentage” value under setting [2] is on record as 0.5%; the “Luciferase expression as a percentage” value under setting [3] is 0.8%; the “Luciferase expression as a percentage” value under setting [4] is reported as 1.4%; the “Luciferase expression as a percentage” value under setting [5] stood at 1.3%; the “Luciferase expression as a percentage” value under setting [6] is recorded as 1.6%.
With `CCCCCCCCCCCCNC(=O)CCN(CCCN(CCO)CCO)CCC(=O)NCCCCCCCCCCCC` [ND87], the “Luciferase expression as a percentage” value under setting [1] was determined as 0.0%; the “Luciferase expression as a percentage” value under setting [2] is on record as 0.0%; the “Luciferase expression as a percentage” value under setting [3] turned out to be 0.0%; the “Luciferase expression as a percentage” value under setting [4] was 0.0%; the “Luciferase expression as a percentage” value under setting [5] is on record as 0.0%; the “Luciferase expression as a percentage” value under setting [6] is 0.0%.
For the compound `CCCCCCCCCCCCCCCOC(=O)CCN(CCCn1ccnc1)CCC(=O)OCCCCCCCCCCCCCCC` [LG93], the “Luciferase expression as a percentage” value is given as 45.0% under setting [7]; 3.6% under setting [1]; 43.8% under setting [8]; 9.2% under setting [2]; 310.5% under setting [9]; 19.8% under setting [3]. The “Luciferase expression as a percentage” value under setting [10] is 281.8%; the “Luciferase expression as a percentage” value under setting [4] is 37.3%; the “Luciferase expression as a percentage” value under setting [11] came to 185.9%; the “Luciferase expression as a percentage” value under setting [5] is given as 24.0%; the “Luciferase expression as a percentage” value under setting [12] was determined as 183.8%; the “Luciferase expression as a percentage” value under setting [6] was 24.6%. In addition, the “luciferase expression (second part of table, values relative to LIPO2000)” value runs as follows: under setting [7], 45.0; under setting [8], 43.8; under setting [9], 310.5; under setting [10], 281.8; under setting [11], 185.9; under setting [12], 183.8.
For `CCCCCCCCCCCCCCOC(=O)CCN(CCC(=O)OCCCCCCCCCCCCCC)CCN1CCOCC1` [LF90], the “Luciferase expression as a percentage” value is 0.4% and 0.5% under setting [1]; 0.5% and 0.4% under setting [2]; 0.3% and 0.7% under setting [3]; 1.3% and 0.4% under setting [4]; 1.1% and 0.4% under setting [5]; 1.5% and 0.4% under setting [6].
Regarding `CCCCCCCCCCCCCCOC(=O)CCN(CCCCCO)CCC(=O)OCCCCCCCCCCCCCC` [LF32], the “Luciferase expression as a percentage” value was 0.1% under setting [1]; 0.1% under setting [2]; 0.2% under setting [3]; 0.1% under setting [4]; 0.4% under setting [5]; 0.4% under setting [6].
Turning to `CCCCCCCCCCCCCCCCCCOC(=O)CCN(CCC(=O)OCCCCCCCCCCCCCCCCCC)CC1COC(C)(C)O1` (stereo not drawn) [LH7], the “Luciferase expression as a percentage” value runs as follows: under setting [1], 0.0%; under setting [2], 0.0%; under setting [3], 0.0%; under setting [4], 0.0%; under setting [5], 0.0%; under setting [6], 0.0%.
Take `CCCCCCCCCCCCCCCOC(=O)CC[N+](C)(CCC[N+](C)(CCC(=O)OCCCCCCCCCCCCCCC)CCC(=O)OCCCCCCCCCCCCCCC)CCC(=O)OCCCCCCCCCCCCCCC` [QG100]: the “% of the luciferase activity obtained from the use of Lipofectamine 2000” value is given as 11.2% (2.5 w/w lipid to DNA, luciferase assay after 48 hours); 32.1% (5 w/w lipid to DNA, luciferase assay after 48 hours); 57.1% (10 w/w lipid to DNA, luciferase assay after 48 hours); 102.6% (15 w/w lipid to DNA, luciferase assay after 48 hours); 93.0% (20 w/w lipid to DNA, luciferase assay after 48 hours); 94.5% (25 w/w lipid to DNA, luciferase assay after 48 hours). Also, the “luciferase expression (second part of table, values relative to LIPO2000)” value reads like this: (lipid/DNA 2.5 w/w, 300 ng of DNA per well) 11.2; (lipid/DNA 5 w/w, 300 ng of DNA per well) 32.1; (lipid/DNA 10 w/w, 300 ng of DNA per well) 57.1; (lipid/DNA 15 w/w, 300 ng of DNA per well) 102.6; (lipid/DNA 20 w/w, 300 ng of DNA per well) 93.0; (lipid/DNA 25 w/w, 300 ng of DNA per well) 94.5.
Consider `CCCCCCCCCCCCCCCOC(=O)CCN(C)CCN(C)CCC(=O)OCCCCCCCCCCCCCCC` [LG60], for which the “Luciferase expression as a percentage” value under setting [1] stood at 0.9%; the “Luciferase expression as a percentage” value under setting [2] is 1.0%; the “Luciferase expression as a percentage” value under setting [3] is 0.8%; the “Luciferase expression as a percentage” value under setting [4] was found to be 0.9%; the “Luciferase expression as a percentage” value under setting [5] is listed as 0.8%; the “Luciferase expression as a percentage” value under setting [6] was 1.0%.
Regarding `CCCCCCCCCCCCCCOC(=O)CCN(CCC(=O)OCCCCCCCCCCCCCC)CCc1ccc(OC)c(OC)c1` [LF17], the “Luciferase expression as a percentage” value turned out to be 0.1% under setting [1]; 0.1% under setting [2]; 0.1% under setting [3]; 0.1% under setting [4]; 0.1% under setting [5]; 0.1% under setting [6].
Consider `CCCCCCCCCCCCCCCOC(=O)CCN(CC)CCN(CC)CCC(=O)OCCCCCCCCCCCCCCC` [LG61], for which the “Luciferase expression as a percentage” value reads like this: under setting [1], 0.4%; under setting [2], 0.5%; under setting [3], 0.4%; under setting [4], 0.4%; under setting [5], 0.4%; under setting [6], 0.5%.
For the compound `CCCCCCCCCCOC(=O)CCN(C)CCN(C)CCC(=O)OCCCCCCCCCC` [LB60], the “Luciferase expression as a percentage” value by setting is: under setting [1], 0.4%; under setting [2], 0.4%; under setting [3], 0.4%; under setting [4], 0.4%; under setting [5], 0.4%; under setting [6], 0.4%.
With `CCCCCCCCCCOC(=O)CCN(CCCO)CCC(=O)OCCCCCCCCCC` [LB20], the “Luciferase expression as a percentage” value runs as follows: under setting [1], 0.1%; under setting [2], 0.1%; under setting [3], 0.4%; under setting [4], 0.2%; under setting [5], 0.3%; under setting [6], 0.7%.
